# Source: patent publication US6469056B1, “Pharmaceutically active compounds, their preparation and use as ECE-inhibitors” (Abbott Laboratories, priority 1997, dated 2002)
# Legend:
# Format in all cases: biochemical
# [1] = biological target: ACE (angiotensin converting enzyme) (Homo sapiens, UniProt P12821); assay: ACE inhibition
# [2] = biological target: T1, recombinant human ECE from CHO cells (Homo sapiens, UniProt P42892); assay: ECE inhibitor test, IC50 determination (Big ET1 cleavage, HPLC); settings: Big ET1 substrate, 1 hour at 37° C., pH 7.2
# T1 construct: made in house; host or cells: CHO cells
# T1 sequence (P42892 1-770): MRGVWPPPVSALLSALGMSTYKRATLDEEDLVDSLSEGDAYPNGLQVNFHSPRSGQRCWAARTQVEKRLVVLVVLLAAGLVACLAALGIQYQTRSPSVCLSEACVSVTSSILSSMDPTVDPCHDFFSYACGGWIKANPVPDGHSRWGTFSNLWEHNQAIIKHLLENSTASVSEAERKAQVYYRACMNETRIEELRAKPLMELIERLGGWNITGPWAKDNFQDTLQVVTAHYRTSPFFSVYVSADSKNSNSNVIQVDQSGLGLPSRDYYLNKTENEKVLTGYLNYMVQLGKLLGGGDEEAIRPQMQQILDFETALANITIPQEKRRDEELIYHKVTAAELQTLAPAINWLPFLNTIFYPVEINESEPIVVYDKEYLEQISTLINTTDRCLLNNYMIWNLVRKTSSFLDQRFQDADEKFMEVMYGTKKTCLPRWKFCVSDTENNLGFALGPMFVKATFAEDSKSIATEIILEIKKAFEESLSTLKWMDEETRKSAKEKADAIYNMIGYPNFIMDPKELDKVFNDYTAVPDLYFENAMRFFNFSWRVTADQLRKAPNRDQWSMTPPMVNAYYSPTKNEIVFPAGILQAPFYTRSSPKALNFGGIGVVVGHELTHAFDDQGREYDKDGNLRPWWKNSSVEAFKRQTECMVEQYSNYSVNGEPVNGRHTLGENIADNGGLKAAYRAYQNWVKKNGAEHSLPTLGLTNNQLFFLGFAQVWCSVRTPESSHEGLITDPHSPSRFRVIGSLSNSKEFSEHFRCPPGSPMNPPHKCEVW
# Protocol: ECE Inhibitor Tests, IC50 Determinations
# Inhibitors of endothelin converting enzyme (ECE) were tested using recombinant human ECE from CHO cells as described in Schmidt et al. (FEBS Letters 356, 1994: 238-243).
# The enzyme preparations employed were, after membrane isolation and solubilization, further purified by Mono-Q chromatography and WGA lectin chromatography. The preparations obtained in this way contained no interfering foreign protease activities and had specific activities in the range 1-20 mU/mg. 5 μl of this enzyme solution were preincubated with 495 μl of test buffer (100 mM Pi, 500 mM NaCl, 0,1 mg/ml BSA pH 7.2) and with in each case 5 μl of appropriately concentrated solutions (10^−3 M, 10^−4 M, 10^−5 M etc.) of the inhibitors in the test buffer for 10 minutes. 50 μl aliquots were mixed with 5 μl of 2×10^−3 M Big ET1 solution (=Big Endothelin1) in 0.02% acetic acid. The mixtures were stopped after 1 hour at 37° C. by adding 150 μl of 0.5% TFA (=trifluoroacetic acid) in water, and centrifuged at 10000×g for 5 minutes, and the enzyme reaction was determined by measuring the endothelin formed by means of reversed phase HPLC as described in Takada et al. (Biochem. Biophys. Res. Comm. 176, 1991, 860), K. Ohnaka et al. (Biochem. Biophys. Res. Commun. 168, 1990, 1128). An inhibition plot was produced from the values of the inhibition at the various inhibitor concentrations, and the half-maximum inhibition (IC50) was read off as a measure of the strength of the inhibitory effect.
# [3] = biological target: NEP 24.11 (neutral endopeptidase 24.11) (Homo sapiens, UniProt P08473); assay: NEP 24.11 inhibition
# Chain of NEP 24.11 (neutral endopeptidase 24.11) (P08473 whole entry, species assumed): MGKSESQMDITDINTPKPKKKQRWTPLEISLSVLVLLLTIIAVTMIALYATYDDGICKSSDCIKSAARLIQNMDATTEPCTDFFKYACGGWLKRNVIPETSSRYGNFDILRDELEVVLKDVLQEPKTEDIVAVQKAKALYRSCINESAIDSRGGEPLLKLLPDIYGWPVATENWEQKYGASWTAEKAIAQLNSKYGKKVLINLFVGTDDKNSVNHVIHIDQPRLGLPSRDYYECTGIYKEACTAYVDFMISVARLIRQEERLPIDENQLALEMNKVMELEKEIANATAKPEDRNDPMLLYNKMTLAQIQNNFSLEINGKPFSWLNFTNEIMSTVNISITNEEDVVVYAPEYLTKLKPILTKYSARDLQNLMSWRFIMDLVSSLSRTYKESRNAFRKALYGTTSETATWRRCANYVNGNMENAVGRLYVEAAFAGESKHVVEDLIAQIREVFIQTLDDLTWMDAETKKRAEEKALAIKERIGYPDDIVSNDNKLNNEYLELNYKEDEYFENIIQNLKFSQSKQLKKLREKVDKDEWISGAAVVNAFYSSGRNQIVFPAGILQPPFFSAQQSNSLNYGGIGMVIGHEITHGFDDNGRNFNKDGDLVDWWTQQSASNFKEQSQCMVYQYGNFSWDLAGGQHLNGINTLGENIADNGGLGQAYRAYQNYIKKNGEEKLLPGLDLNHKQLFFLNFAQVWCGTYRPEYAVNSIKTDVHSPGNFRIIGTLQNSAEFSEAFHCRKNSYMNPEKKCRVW
# Chain of ACE (angiotensin converting enzyme) (P12821 30-1306, species assumed): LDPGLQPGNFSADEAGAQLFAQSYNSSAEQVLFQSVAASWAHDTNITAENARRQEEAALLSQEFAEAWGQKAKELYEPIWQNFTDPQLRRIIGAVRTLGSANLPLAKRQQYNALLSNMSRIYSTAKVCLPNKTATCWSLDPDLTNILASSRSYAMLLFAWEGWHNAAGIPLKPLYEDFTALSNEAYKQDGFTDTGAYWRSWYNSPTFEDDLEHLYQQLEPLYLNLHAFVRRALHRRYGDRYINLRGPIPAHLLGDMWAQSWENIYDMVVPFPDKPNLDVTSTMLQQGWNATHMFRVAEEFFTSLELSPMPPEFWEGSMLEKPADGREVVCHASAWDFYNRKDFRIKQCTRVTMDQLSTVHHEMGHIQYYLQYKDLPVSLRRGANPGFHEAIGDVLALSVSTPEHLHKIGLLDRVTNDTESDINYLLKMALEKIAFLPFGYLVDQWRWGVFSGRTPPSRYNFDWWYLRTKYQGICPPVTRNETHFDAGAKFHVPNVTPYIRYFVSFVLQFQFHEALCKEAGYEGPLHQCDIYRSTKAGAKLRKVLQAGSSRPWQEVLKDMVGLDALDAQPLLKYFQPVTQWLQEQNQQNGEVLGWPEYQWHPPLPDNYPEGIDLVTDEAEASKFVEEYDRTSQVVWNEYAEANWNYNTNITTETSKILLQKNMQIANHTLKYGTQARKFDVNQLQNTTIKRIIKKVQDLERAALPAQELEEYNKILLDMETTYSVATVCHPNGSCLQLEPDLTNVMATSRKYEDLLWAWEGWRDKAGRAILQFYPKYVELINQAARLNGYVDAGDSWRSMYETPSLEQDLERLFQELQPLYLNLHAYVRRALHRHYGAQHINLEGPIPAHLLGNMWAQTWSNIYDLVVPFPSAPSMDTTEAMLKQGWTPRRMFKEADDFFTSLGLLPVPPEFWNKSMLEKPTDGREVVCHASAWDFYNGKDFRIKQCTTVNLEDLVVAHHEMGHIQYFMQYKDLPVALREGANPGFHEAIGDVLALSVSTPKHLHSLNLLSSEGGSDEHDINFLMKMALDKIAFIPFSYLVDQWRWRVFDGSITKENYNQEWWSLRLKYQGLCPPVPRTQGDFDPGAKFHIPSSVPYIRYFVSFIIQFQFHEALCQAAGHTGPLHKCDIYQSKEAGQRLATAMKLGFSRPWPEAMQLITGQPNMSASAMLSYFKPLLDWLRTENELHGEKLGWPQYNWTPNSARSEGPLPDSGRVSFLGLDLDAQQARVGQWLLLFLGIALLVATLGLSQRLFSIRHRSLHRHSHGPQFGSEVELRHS
IC50 [1] [µM],IC50 [2] [µM],IC50 [3] [µM],Compound
> 100,2,> 100,O=C(N[C@@H](Cc1ccccc1)CN(C(=O)c1ccc(Cl)s1)[C@@H](Cc1ccccc1)C(=O)O)OCC1c2ccccc2-c2ccccc21 [Compound 1a]
> 100,3,> 100,CC(C)(C)SSC[C@@H](CN(C(=O)c1ccc(Cl)s1)[C@@H](Cc1ccccc1)C(=O)O)NC(=O)OCC1c2ccccc2-c2ccccc21 [Compound 1b]
> 100,4,> 100,O=C(N[C@@H](Cc1ccccc1)CN(C(=O)c1ccc2ccccc2c1)[C@@H](Cc1ccccc1)C(=O)O)OCC1c2ccccc2-c2ccccc21 [Compound 1e]
